Patent US9682928B2 (NeuroPro Therapeutics, Inc., priority 2009, dated 2017)
Entries after “also recorded” stand apart in the source; their conditions may differ.

Tests used:
[1] = test system: Male Rj: NMRI mice; experiment: Formalin paw test (late phase) in the mouse; format: in vivo
Experimental: The method described herein detects analgesic/anti-inflammatory activity, generally used to test compounds for pain relief, in particular diabetic neuropathy or nociceptive neuropathy. See Wheeler-Aceto, et al. (1991) Psychopharmacology 104: 35-44.
Mice were given an intraplantar injection of 5% formalin (25 μl) into the posterior left paw. This treatment induces paw licking in control animals. Mice were briefly observed at 1 minute intervals between 15 and 50 minutes after the injection of formalin and the number of occasions that the mice were observed licking the injected paw was recorded. There were 10 mice per group and the test was performed “blind.”
The experiment included 11 groups. Data was analyzed by comparing treated groups with vehicle control using unpaired Mann-Whitney U tests.
Gabapentin (100 mg/kg i.p.) administered under the same experimental conditions, was used as reference substance. The experiment included several groups. Data was analyzed by comparing treated groups with vehicle control using unpaired Mann-Whitney U tests.

[2] = test system: Male CD-1 mice; experiment: Chung (SNL) neuropathic pain study in mice; format: in vivo, mouse; details: mice, i.p., SNL
Text: Male CD-1 mice (25-35 g, Charles River) were used for all studies. Mice were housed in groups of five in Plexiglas chambers with food and water available ad libitum. All animals were maintained on a 12 hr light/dark cycle (lights on at 7:00 AM) in a temperature- and humidity-controlled animal colony. The health status of the animals used in this study was examined on arrival. Only animals in good health were acclimatized to laboratory conditions and used in the study. The acclimation period to the vivarium was a minimum of 7 days. All animal experiments were performed under an approved protocol in accordance with institutional guidelines and in accordance with the Guide for the Care and Use of Laboratory Animals as adopted and promulgated by the National Institutes of Health.
NTP has provided adequate amounts of NTP-2014 and NTP-2026 along with detailed instructions for preparing injection solutions. Gabapentin (Gallipot, St. Paul, Minn.) was dissolved in physiological saline. Injections were made using a 1-mL syringe with a 30-gauge needle at a volume of 10 ml/kg body weight. Animal body weights were measured prior to surgery and then on the morning of Day 7 (post-SNL testing). For i.p. drug administration, each mouse was firmly grasped by the nape of the neck and the tail was tucked between the last two fingers and palm of the technician's hand. The back of the mouse iwasarched slightly backwards exposing the abdominal region. The needle was inserted through the skin and abdominal musculature into the peritoneal cavity just off of the midline. Mice are immediately returned to the testing cage until behavioral testing.
NTP2026 (56, 100 and 180 mg/kg, i.p.); NTP 2014 (32, 56 and 100 mg/kg, i.p.); Gabapentin (100 mg/kg, i.p.); Vehicle Control (10% TPGS in benzoate buffer, i.p.).
SNL surgeries were performed based on the procedures described for rats (Kim and Chung, 1992) and modified for mice (Wang et al., 2001). Anesthesia was maintained with 0.5% halothane in O2 and body temperature was maintained using a heated water blanket. After surgical preparation of the mice, a 1-cm paraspinal incision was made at the level L4-S2. The L5 and L6 spinal nerves were exposed and tightly ligated using a 4-0 silk suture. The ligation was made distal to the dorsal root ganglion but before the fibers joined the sciatic nerve. The incisions were then closed, and animals are allowed to recover. […] Mechanical thresholds were determined by measuring the paw withdrawal threshold to probing with a series of calibrated von Frey filaments as described below.
Non-noxious sensory thresholds of the mice were determined by paw withdrawal […] to probing with a series of calibrated (0.02-2.34 gm on a logarithmic scale) von Frey filaments (“up and down” method) according to Chaplan et al. (1994) and analyzed using a Dixon (1980) nonparametric test. Results are expressed as the mean withdrawal thresholds. Baseline latencies/thresholds were determined prior to surgery, on the morning of Day 7, and then between 20-60 minutes post dosing with the test drugs. The post-drug time corresponds to the time of maximal activity for these compounds in the tail-flick assay.

[3] = test system: male Sprague Dawley rats; experiment: Taxol-induced peripheral neuropathy (rat), mechanical allodynia (von Frey); format: in vivo; details: gabapentin 100 mg/kg
Text: In this study, an animal model of Taxol-induced sensory neuropathy was employed to evaluate the effects of the sponsor's test compounds, for response to tactile sensitivity using von Frey test of mechanical allodynia. […] Therefore, Taxol-induced mechanical allodynia was employed as the measured behavioral endpoint.
The test substance was homogenized and dispersed using a mortar and a pestle in 0.2% hydroxypropylmethylcellulose (HPMC) in physiological saline, which served as the vehicle. Test articles were administered intraperitoneally in dose volumes of 10 mL/kg body weight. Preparations were made freshly for each day of administration.
Prior to test article NTP-2024 and vehicle control group administration, rats were pretreated at 30 minutes and again at 10 minutes prior to test article administration with a general metabolic inhibitor, piperonyl butoxide (150 mg/kg i.p.) in DMSO, at a volume of 1 mL/kg.
The reference article, Gabapentin, was formulated in saline to a concentration of 100 mg/mL and delivered […] at a dose volume of 1 mL/kg body weight (for a dosing concentration of 100 mg/kg).
All animals were administered Taxol, 2 mg/kg, IP at a dose volume of 1 mL/kg, on Days 1, 3, 5 and 7.
On Day 32, all animals received a single intraperitoneal injection of test article or vehicle according to Tables 1 and 2. For group 1 (vehicle), rats were pre-treated with Piperonyl butoxide (150 mg/kg IP, dose volume of 1 mL/kg) at 30 minutes and again at 10 minutes prior to vehicle administration. Four animals in group 3 (NTP-2024) were also pre-treated with Piperonyl butoxide (150 mg/kg IP, dose volume of 1 mL/kg) at 30 minutes and again at 10 minutes prior to vehicle administration. Animals in Groups 2, 3, 4, & 5 were pre-treated with Saline (dose volume of 1 mL/kg, IP) at 30 minutes and again at 10 minutes prior to test article administration. With the exception of animals in group 2, the animals received an IP injection of vehicle or test article 30 min prior to mechanical allodynia testing. Animals were dosed at a volume of 10 mL/kg.
Animals in group 2, received an IP injection of Gabapentin 90 minutes prior to mechanical allodynia testing. Animals were dosed at a volume of 1 mL/kg.
All animals underwent von Frey testing for mechanical allodynia. On testing days, the animals were returned to the chambers and allowed approximately 15 minutes to explore their surroundings prior to testing. A series of filaments were applied to the left hind paw. A 2.0 g filament was first applied to the plantar surface, if the animal responded to the filament (by lifting its paw) then the next smaller filament was applied. […] This is repeated in an “Up down” method for four responses after the first initial change in response.
The original study design used thermal hyperalgesia as the main parameter for testing the ability of the test compounds to ameliorate the pain associated with the Taxol injection. The treatment inclusion was set at a 20% drop from baseline values as determined on Day 28. […] The study design was amended to use mechanical allodynia as the testing parameter. […] This changed the testing days from Day 28 to Day 31 for allodynia confirmation and Day 29 to Day 32 for testing the article efficacy. Additional animals were received to complete the group size designation. These animals were tested for mechanical allodynia only. The study was then further amended to remove the piperonyl butoxide as a pre-treatment for Group 3 (NTP-2024). […] Because this study was conducted in two portions, four (4) animals from Group 3 received the metabolic inhibitor and five (5) received Saline as a pre-treatment.
The group mean results were analyzed versus the vehicle control group using a two way ANOVA, followed by a Bonferroni post-hoc test. Individual groups were tested pre and post dose using a paired t-test.

[4] = test system: Male CD-1 mice; experiment: Chung (SNL) neuropathic pain study in mice; format: in vivo, mouse; details: high dose group (180 mg/kg NTP-2014; 100 mg/kg NTP-2026; gabapentin 100 mg/kg, i.p.)

Compound: NCC1(CC(=O)O)CCCCC1 [Gabapentin, reference compound]
- Licking Score % Pain Decrease ([1]; gabapentin 100 mg/kg (584 μmol/kg)): 63%
- Licking Score (15 to 50 minutes post-formalin injection) % Change from Control ([1]; gabapentin 100 mg/kg i.p. (584 μmol/kg)): −63%
- Reversal of tactile hypersensitivity [2]: dose-dependent activity
- Reversal of mechanical allodynia [3]: able to mitigate the mechanical allodynia; also recorded: significantly reverse
- Sedation [4]: minor sedation and incoordination
